One assay deals with U-87 MG. The experiment in a line: Cancer cell viability assay (MTT), U-87 MG. The assay is classed as cell-based. The conditions noted are these: Homo sapiens, 72 hrs, 10% FBS media. The procedure:
(§1) Breast cancer and glioblastoma cell lines were plated 4000 cells/well in 96-well plates in the presence of 10% FBS media. The following day cells were treated with various concentrations of example compounds (0.1% DMSO final) and incubated for 72 hrs. After the incubation An MTT assay was performed to access cell viability. Percent of viability was determined using DMSO vehicle and no cell (blank) controls.

Assay [1] has as its target recombinant thioredoxin reductase 1 (TrxR1) (Homo sapiens (Human), UniProt Q16881). The experiment in a line: Inhibition of recombinant TrxR1 (DTNB assay). The settings on record: 30 nM TrxR1, 250 μM NADPH, 15 minutes incubation, O.D. 412 nm, read-out: TrxR Assay IC50. The assay is classed as biochemical. The procedure: (§2) Small molecule inhibition of recombinant thioredoxin reductase 1 (TrxR1) and gluthathione reductase (GR) was examined in 96-well plate format. 30 nM TrxR1 was incubated in the presence of 250 μM NADPH, 0.1 mg/ml BSA, and various concentrations of compound (1% DMSO final) in 50 mM Tris (pH 7.5) and 2 mM EDTA buffer for 15 minutes. Following the incubation period, 2 mM DTNB was added to each well and the change in O.D. at 412 nm was followed. Percent activity was determined using DMSO vehicle and no TrxR1 (blank) controls. 2 nM GR was incubated in the presence of 250 μM NADPH, 0.1 mg/ml BSA, and various concentrations of compounds (1% DMSO final) in 50 mM Tris (pH 7.5) and 2 mM EDTA buffer for 15 minutes. Following the incubation period, 1 mM GSSG was added to each well and the change in O.D. at 340 nm was followed. Percent activity was determined using DMSO vehicle and no GR (blank) controls.

Assay [2] has as its target recombinant gluthathione reductase (GR) (Homo sapiens (Human), UniProt P00390). The experiment in a line: Inhibition of recombinant GR (GSSG assay). The conditions noted are these: 2 nM GR, 250 μM NADPH, 15 minutes incubation, O.D. 340 nm. The assay is classed as biochemical. Here is the method: as §2
The next assay deals with MDA-MB-468. The experiment in a line: Cancer cell viability assay (MTT), MDA-MB-468. The settings on record: Homo sapiens, 72 hrs, 10% FBS media. The assay is classed as cell-based. Here is the method: as §1
Another assay concerns MDA-MB-231. The experiment in a line: Cancer cell viability assay (MTT), MDA-MB-231. The assay is classed as cell-based. The settings on record: Homo sapiens, 72 hrs, 10% FBS media. The procedure:
as §1

The test system of a further assay is MDA-MB-231 cells. Description: Breast cancer cell viability assay (Alamar Blue). The conditions noted are these: Homo sapiens, 72 hrs, 10% FBS media containing 25 nM selenite. Format: cell-based. The procedure: MDA-MB-231 cells were plated 2000 cells/well in 96-well black optical plates in the presence of 10% FBS media containing 25 nM selenite. The following day cells were treated with various concentrations of compounds (0.1% DMSO final) and incubated for 72 hrs. After the incubation Alamar Blue reagent was added to each well and incubated for additional 3 hrs. Fluorescence was read ex:530 nm/em:590 nm, and percent of viability was determined using DMSO vehicle and no cell (blank) controls.

Some results are limits rather than exact numbers.

What is called IC50 is the point on the concentration scale where inhibition reaches its midpoint.

recombinant thioredoxin reductase 1 (TrxR1), sequence (Q16881 151-649): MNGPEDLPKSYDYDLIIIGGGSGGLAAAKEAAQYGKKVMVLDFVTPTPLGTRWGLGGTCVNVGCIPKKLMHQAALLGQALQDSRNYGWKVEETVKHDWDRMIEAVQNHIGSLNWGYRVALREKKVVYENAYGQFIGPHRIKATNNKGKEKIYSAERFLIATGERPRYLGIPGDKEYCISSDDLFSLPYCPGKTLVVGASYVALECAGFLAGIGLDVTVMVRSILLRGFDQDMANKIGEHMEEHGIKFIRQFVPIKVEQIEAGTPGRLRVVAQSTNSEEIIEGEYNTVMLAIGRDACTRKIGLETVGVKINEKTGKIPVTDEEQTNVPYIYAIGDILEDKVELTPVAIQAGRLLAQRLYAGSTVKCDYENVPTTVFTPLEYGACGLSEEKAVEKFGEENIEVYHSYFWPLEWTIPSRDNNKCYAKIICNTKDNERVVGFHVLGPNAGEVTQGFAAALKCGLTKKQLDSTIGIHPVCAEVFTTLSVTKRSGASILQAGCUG
recombinant gluthathione reductase (GR), sequence (P00390 44-522): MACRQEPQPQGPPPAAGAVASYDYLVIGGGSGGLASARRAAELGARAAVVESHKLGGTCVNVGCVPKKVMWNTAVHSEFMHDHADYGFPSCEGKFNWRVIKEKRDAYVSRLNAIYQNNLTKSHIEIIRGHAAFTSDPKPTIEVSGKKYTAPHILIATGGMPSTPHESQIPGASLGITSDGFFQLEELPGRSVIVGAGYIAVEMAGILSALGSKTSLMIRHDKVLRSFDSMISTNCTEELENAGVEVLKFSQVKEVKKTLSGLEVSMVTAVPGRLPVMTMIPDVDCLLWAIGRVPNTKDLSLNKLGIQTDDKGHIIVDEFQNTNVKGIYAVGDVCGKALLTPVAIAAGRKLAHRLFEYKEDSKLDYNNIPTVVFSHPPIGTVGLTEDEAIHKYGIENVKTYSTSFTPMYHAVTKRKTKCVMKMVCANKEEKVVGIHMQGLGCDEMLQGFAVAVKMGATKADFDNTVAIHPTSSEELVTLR

Regarding `COc1ccc([N+](=O)[O-])c([S+]([O-])C2CCOC2C)n1` (stereo not shown) [Example 4, 6-Methoxy-2-(2-methyl-tetrahydro-furan-3-ylsulfinyl)-3-nitro-pyridine], the IC50 was 9.27 µM in the assay with U-87 MG; 1.01 µM in assay [1]; more than 100 µM in assay [2]; 2.1 µM with MDA-MB-468; 3.54 µM with MDA-MB-231.
As to `COc1ccc([N+](=O)[O-])c(S(=O)(=O)C2CCOC2C)n1` (stereo not shown) [Example 1], the concentration for half-maximal inhibition (IC50) was 4.53 µM in the assay with MDA-MB-231 cells; 8.89 µM in the assay on U-87 MG; 0.093 µM in assay [1]; more than 100 µM in assay [2]; 4.14 µM in the assay on MDA-MB-468; 8.94 µM in the assay on MDA-MB-231.
For `COc1ccc([N+](=O)[O-])c([S+]([O-])C2CCOCC2)n1` (stereo not shown) [Example 5, 6-Methoxy-3-nitro-2-(tetrahydro-pyran-4-ylsulfinyl)-pyridine], the IC50 in assay [1] was 4.33 µM; in assay [2], more than 100 µM; with MDA-MB-468 it was 2.4 µM; in the assay on MDA-MB-231, 3.57 µM.
Take `COc1ccc([N+](=O)[O-])c([S+]([O-])C2CCN(C(C)=O)CC2)n1` (stereo not shown) [Example 6, 1-[4-(6-Methoxy-3-nitro-pyridin-2-ylsulfinyl)-piperidin-1-yl]-ethanone]: the IC50 in assay [1] is 4.06 µM; in assay [2] it was more than 100 µM; in the assay with MDA-MB-468 it was 5.58 µM; in the assay on MDA-MB-231, 11.6 µM.
Take `COc1ccc([N+](=O)[O-])c(S(=O)(=O)C2CCOCC2)n1` [Example 3, 6-methoxy-3-nitro-2-((tetrahydro-2H-pyran-4-yl)sulfonyl)pyridine]: the IC50 was 5.08 µM in the assay with MDA-MB-231 cells; 6.11 µM in the assay with U-87 MG; 0.0391 µM in assay [1]; more than 100 µM in assay [2]; 4.34 µM in the assay on MDA-MB-468; 7.53 µM in the assay with MDA-MB-231.
`COc1ccc([N+](=O)[O-])c(S(=O)(=O)C2CCN(C(C)=O)CC2)n1` [Example 2, 1-(4-((6-methoxy-3-nitropyridin-2-yl)sulfonyl)piperidin-1-yl)ethan-1-one]: the IC50 with MDA-MB-231 cells is 12.3 µM; in the assay with U-87 MG, 10.6 µM; in assay [1] it was 0.391 µM; in assay [2], more than 100 µM; in the assay on MDA-MB-468, 4 µM; with MDA-MB-231 it was 9.97 µM.
